Measurements: the NIST ThermoML archive (doi:10.1016/j.jct.2010.01.008)
Numbers after ± are expanded uncertainties. Each block holds one molecule with its values, some of them ahead of it.

Experiments:
[1] = xn = mol fraction of the nth substance listed; conditions: 298.15 K, 101.3 kPa, Liquid, Vibrating tube method
[2] = 298.15 K; 101.33 kPa; Liquid; Vibrating tube method
[3] = refractive index (Na D-line) (dimensionless); conditions: 298.15 K; 101.33 kPa; Liquid; Automatic Refractometer

Compound: CCCCCCC [heptane] + Cc1ccccc1
mass density ([1]; x1 = 1): 679.56 ± 0.2 kg/m3

Compound: CCCCCCCCC [nonane] + Cc1ccccc1
mass density ([1]; x1 = 0.096): 838.74 ± 0.27 kg/m3
mass density ([1]; x1 = 0.1942): 817.91 ± 0.25 kg/m3
mass density ([1]; x1 = 0.2952): 799.09 ± 0.24 kg/m3
mass density ([1]; x1 = 0.3954): 782.63 ± 0.23 kg/m3
mass density ([1]; x1 = 0.4954): 768.02 ± 0.23 kg/m3
mass density ([1]; x1 = 0.5929): 755.35 ± 0.23 kg/m3
mass density ([1]; x1 = 0.6939): 743.54 ± 0.24 kg/m3
mass density ([1]; x1 = 0.7939): 732.97 ± 0.25 kg/m3
mass density ([1]; x1 = 0.8947): 723.28 ± 0.26 kg/m3
mass density ([1]; x1 = 1): 713.99 ± 0.26 kg/m3

mass density [2]: 1219.61 ± 0.42 kg/m3
refractive index [3]: 1.50591 ± 0.00022
Compound: CCOS(=O)(=O)[O-].CC[n+]1cccc(C)c1 [1-ethyl-3-methylpyridinium ethylsulfate]

Compound: CCCCCCCC [octane] + Cc1ccccc1
mass density ([1]; x1 = 0.0982): 838.13 ± 0.27 kg/m3
mass density ([1]; x1 = 0.1977): 816.31 ± 0.26 kg/m3
mass density ([1]; x1 = 0.2975): 796.62 ± 0.24 kg/m3
mass density ([1]; x1 = 0.3983): 778.64 ± 0.23 kg/m3
mass density ([1]; x1 = 0.5005): 761.92 ± 0.23 kg/m3
mass density ([1]; x1 = 0.5988): 747.35 ± 0.22 kg/m3
mass density ([1]; x1 = 0.699): 733.63 ± 0.22 kg/m3
mass density ([1]; x1 = 0.7966): 721.31 ± 0.22 kg/m3
mass density ([1]; x1 = 0.8955): 709.92 ± 0.22 kg/m3
mass density ([1]; x1 = 1): 698.6 ± 0.19 kg/m3

Compound: Cc1ccccc1 [toluene] + CCCCCCCCC
mass density ([1]; x2 = 0): 862.17 ± 0.14 kg/m3

Compound: Cc1ccccc1 [toluene] + CCCCCCCC
mass density ([1]; x2 = 0): 862.17 ± 0.14 kg/m3

Compound: Cc1ccccc1 [toluene] + CCCCCCC
mass density ([1]; x2 = 0): 862.17 ± 0.14 kg/m3
mass density ([1]; x2 = 0.0974): 838.12 ± 0.28 kg/m3
mass density ([1]; x2 = 0.1996): 814.81 ± 0.27 kg/m3
mass density ([1]; x2 = 0.2997): 793.52 ± 0.26 kg/m3
mass density ([1]; x2 = 0.397): 774.31 ± 0.25 kg/m3
mass density ([1]; x2 = 0.497): 755.94 ± 0.24 kg/m3
mass density ([1]; x2 = 0.5961): 738.9 ± 0.24 kg/m3
mass density ([1]; x2 = 0.6967): 722.76 ± 0.24 kg/m3
mass density ([1]; x2 = 0.7958): 707.78 ± 0.24 kg/m3
mass density ([1]; x2 = 0.8973): 693.24 ± 0.23 kg/m3
